Results published in US10287305B2, “Substituted piperidine compound and use thereof” (Takeda Pharmaceutical Company Limited, priority 2016, dated 2019).

Molecular target: human orexin type 2 receptor (hOX2R) (Homo sapiens (Human), UniProt O43614)
Test: Measurement of orexin type 2 receptor agonist activity (Experimental Example 2-1, FLIPR TETRA, intracellular Ca2+)
Type: cell-based
Conditions: CHO dhfr- cells expressing hOX2R, FLIPR TETRA, Fluo-4AM; for Emax: read-out: Emax (%)

Chain of human orexin type 2 receptor (hOX2R) (O43614 whole entry): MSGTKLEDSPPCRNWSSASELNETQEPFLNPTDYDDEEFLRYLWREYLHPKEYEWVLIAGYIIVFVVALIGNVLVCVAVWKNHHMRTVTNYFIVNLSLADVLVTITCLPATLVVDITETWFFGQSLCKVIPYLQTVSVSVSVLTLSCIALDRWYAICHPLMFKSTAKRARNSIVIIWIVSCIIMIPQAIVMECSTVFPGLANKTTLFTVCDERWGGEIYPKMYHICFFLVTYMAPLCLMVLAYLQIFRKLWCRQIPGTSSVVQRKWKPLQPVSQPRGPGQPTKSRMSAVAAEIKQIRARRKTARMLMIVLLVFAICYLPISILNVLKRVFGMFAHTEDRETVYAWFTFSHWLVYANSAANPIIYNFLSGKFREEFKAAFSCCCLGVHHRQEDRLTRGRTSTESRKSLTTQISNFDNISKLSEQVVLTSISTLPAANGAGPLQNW

EC50 [µM]	Emax [%]	Emax (%)	SMILES
3.7	95	–	CCNC(=O)N1CCC[C@H](NS(C)(=O)=O)[C@@H]1CO[C@H]1C[C@@H](Cc2ccccc2)C1 (relative stereo) [Example 266, cis-2-(((cis-3-benzylcyclobutyl)oxy)methyl)-N-ethyl-3-((methylsulfonyl)amino)piperidine-1-carboxamide]
3	95	–	COc1cccc([C@H]2CC[C@@H](OC[C@@H]3NCCC[C@@H]3NS(C)(=O)=O)CC2)c1 (relative stereo) [Example 269, N-(cis-2-(((cis-4-(3-methoxyphenyl)cyclohexyl)oxy)methyl)piperidin-3-yl)methanesulfonamide]
0.08	102	–	COC(=O)N1CCC[C@H](NS(C)(=O)=O)[C@@H]1CO[C@H]1CC[C@@H](c2cccc(OC)c2)CC1 (relative stereo) [Example 270, methyl cis-2-(((cis-4-(3-methoxyphenyl)cyclohexyl)oxy)methyl)-3-((methylsulfonyl)amino)piperidine-1-carboxylate]
0.65	104	–	COc1cccc([C@H]2CC[C@@H](OC[C@H]3[C@@H](NS(C)(=O)=O)CCCN3C(C)=O)CC2)c1 (relative stereo) [Example 271, N-(cis-1-acetyl-2-(((cis-4-(3-methoxyphenyl)cyclohexyl)oxy)methyl)piperidin-3-yl)methanesulfonamide]
0.0052	97	–	CCS(=O)(=O)N[C@H]1CCCN(C(=O)C2CC2)[C@H]1CO[C@H]1CC[C@@H](c2ccccc2)CC1 (relative stereo) [Example 279, N-(cis-1-(cyclopropylcarbonyl)-2-(((cis-4-phenylcyclohexyl)oxy)methyl)piperidin-3-yl)ethanesulfonamide]
3.3	81	–	CCNC(=O)N1CCC[C@H](NS(C)(=O)=O)[C@@H]1CO[C@H]1C[C@H](Oc2ccccc2)C1 (relative stereo) [Example 281, cis-N-ethyl-3-((methylsulfonyl)amino)-2-(((trans-3-phenoxycyclobutyl)oxy)methyl)piperidine-1-carboxamide]
0.26	95	–	CC1(OC(=O)N2CCC[C@H](NS(C)(=O)=O)[C@@H]2COC2CCN(c3ncccn3)CC2)CC1 (relative stereo) [Example 284, 1-methylcyclopropyl cis-3-((methylsulfonyl)amino)-2-(((1-(pyrimidin-2-yl)piperidin-4-yl)oxy)methyl)piperidine-1-carboxylate]
0.13	93	–	CS(=O)(=O)N[C@H]1CCCN(C(=O)OCC(F)(F)F)[C@H]1COC1CCN(c2ncccn2)CC1 (relative stereo) [Example 286, 2,2,2-trifluoroethyl cis-3-((methylsulfonyl)amino)-2-(((1-(pyrimidin-2-yl)piperidin-4-yl)oxy)methyl)piperidine-1-carboxylate]
0.15	99	–	CS(=O)(=O)N[C@H]1CCCN(C(=O)OC2CC2)[C@H]1COC1CCN(c2ncccn2)CC1 (relative stereo) [Example 287, cyclopropyl cis-3-((methylsulfonyl)amino)-2-(((1-(pyrimidin-2-yl)piperidin-4-yl)oxy)methyl)piperidine-1-carboxylate]
3.3	79	–	CS(=O)(=O)N[C@H]1CCCN(C(=O)OC2CC2)[C@H]1COC1CCN(c2ccccc2F)CC1 (relative stereo) [Example 290, cyclopropyl cis-2-(((1-(2-fluorophenyl)piperidin-4-yl)oxy)methyl)-3-((methylsulfonyl)amino)piperidine-1-carboxylate]
0.54	78	–	CC(=O)N1CCC[C@H](NS(C)(=O)=O)[C@@H]1CO[C@H]1CC[C@@H](c2ccccc2OC(F)(F)F)CC1 (relative stereo) [Example 293, N-(cis-1-acetyl-2-(((cis-4-(2-(trifluoromethoxy)phenyl)cyclohexyl)oxy)methyl)piperidin-3-yl)methanesulfonamide]
0.13	95	–	CS(=O)(=O)N[C@H]1CCCN(C(=O)C2CC2)[C@H]1CO[C@H]1CC[C@@H](c2ccccc2OC(F)(F)F)CC1 (relative stereo) [Example 294, N-(cis-1-(cyclopropylcarbonyl)-2-(((cis-4-(2-(trifluoromethoxy)phenyl)cyclohexyl)oxy)methyl)piperidin-3-yl)methanesulfonamide]
0.0042	93	–	CCNC(=O)N1CCC[C@H](NS(C)(=O)=O)[C@@H]1CO[C@H]1CC[C@@H](c2ccccc2OC(F)(F)F)CC1 (relative stereo) [Example 295, cis-N-ethyl-3-((methylsulfonyl)amino)-2-(((cis-4-(2-(trifluoromethoxy)phenyl)cyclohexyl)oxy)methyl)piperidine-1-carboxamide]
2.1	76	–	CC(=O)N1CCC[C@H](NS(C)(=O)=O)[C@@H]1CO[C@H]1CC[C@@H](c2cccc(OC(F)(F)F)c2)CC1 (relative stereo) [Example 297, N-(cis-1-acetyl-2-(((cis-4-(3-(trifluoromethoxy)phenyl)cyclohexyl)oxy)methyl)piperidin-3-yl)methanesulfonamide]
–	92	–	COC(=O)N1CCC[C@H](NS(C)(=O)=O)[C@@H]1CO[C@H]1CC[C@@H](c2cccc(OC(F)(F)F)c2)CC1 (relative stereo) [Example 298, methyl cis-3-((methylsulfonyl)amino)-2-(((cis-4-(3-(trifluoromethoxy)phenyl)cyclohexyl)oxy)methyl)piperidine-1-carboxylate]
0.095	90	–	CS(=O)(=O)N[C@H]1CCCN(C(=O)C2CC2)[C@H]1CO[C@H]1CC[C@@H](c2cccc(OC(F)(F)F)c2)CC1 (relative stereo) [Example 299, N-(cis-1-(cyclopropylcarbonyl)-2-(((cis-4-(3-(trifluoromethoxy)phenyl)cyclohexyl)oxy)methyl)piperidin-3-yl)methanesulfonamide]
0.0097	94	–	CCNC(=O)N1CCC[C@H](NS(C)(=O)=O)[C@@H]1CO[C@H]1CC[C@@H](c2cccc(OC(F)(F)F)c2)CC1 (relative stereo) [Example 300, cis-N-ethyl-3-((methylsulfonyl)amino)-2-(((cis-4-(3-(trifluoromethoxy)phenyl)cyclohexyl)oxy)methyl)piperidine-1-carboxamide]
0.021	105	–	CCS(=O)(=O)N[C@H]1CCCN(C(=O)OC)[C@H]1CO[C@H]1CC[C@@H](c2ccccc2)CC1 (relative stereo) [Example 301, methyl cis-3-((ethylsulfonyl)amino)-2-(((cis-4-phenylcyclohexyl)oxy)methyl)-piperidine-1-carboxylate]
1.6	98	–	CC(C)OC(=O)N1CCC[C@H](NS(C)(=O)=O)[C@@H]1CO[C@H]1C[C@@H](c2ccccc2)C1 (relative stereo) [Example 307, isopropyl cis-3-((methylsulfonyl)mino)-2-(((cis-3-phenylcyclobutyl)oxy)methyl)-piperidine-1-carboxylate]
0.59	109	–	CS(=O)(=O)N[C@H]1CCCN(C(=O)CC2CC2)[C@H]1CO[C@H]1C[C@@H](c2ccccc2)C1 (relative stereo) [Example 308, N-(cis-1-(cyclopropylacetyl)-2-(((cis-3-phenylcyclobutyl)oxy)methyl)-piperidin-3-yl)methanesulfonamide]
3.2	98	–	CCc1ccccc1[C@H]1CC[C@@H](OC[C@@H]2NCCC[C@@H]2NS(C)(=O)=O)CC1 (relative stereo) [Example 311, N-(cis-2-(((cis-4-(2-ethylphenyl)cyclohexyl)oxy)methyl)-piperidin-3-yl)methanesulfonamide]
0.27	95	–	CC(OC(=O)N1CCC[C@H](NS(C)(=O)=O)[C@@H]1COC1CCN(c2ncccn2)CC1)C(F)(F)F (relative stereo) [Example 313, 1,1,1-trifluoropropan-2-yl cis-3-((methylsulfonyl)amino)-2-(((1-(pyrimidin-2-yl)piperidin-4-yl)oxy)methyl)piperidine-1-carboxylate]
0.17	103	–	CN(C)S(=O)(=O)N[C@H]1CCCN(C(=O)OCC(F)(F)F)[C@H]1COC1CCN(c2ncccn2)CC1 (relative stereo) [Example 315, 2,2,2-trifluoroethyl cis-3-((dimethylsulfamoyl)amino)-2-(((1-(pyrimidin-2-yl)piperidin-4-yl)oxy)methyl)piperidine-1-carboxylate]
0.33	91	–	CC(OC(=O)N1CCC[C@H](NS(=O)(=O)N(C)C)[C@@H]1COC1CCN(c2ncccn2)CC1)C(F)(F)F (relative stereo) [Example 316, 1,1,1-trifluoropropan-2-yl cis-3-((dimethylsulfamoyl)amino)-2-(((1-(pyrimidin-2-yl)piperidin-4-yl)oxy)methyl)piperidine-1-carboxylate]
2.2	37	–	CC(=O)N1CCC[C@H](NS(C)(=O)=O)[C@@H]1CO[C@H]1CC[C@@H](c2c(C)cccc2C)CC1 (relative stereo) [Example 321, N-(cis-1-acetyl-2-(((cis-4-(2,6-dimethylphenyl)cyclohexyl)oxy)-methyl)piperidin-3-yl)methanesulfonamide]
–	–	71	COC(=O)N1CCC[C@H](NS(C)(=O)=O)[C@@H]1CO[C@H]1CC[C@@H](c2ccccc2C(F)F)CC1 (relative stereo) [Example 322, methyl cis-2-(((cis-4-(2-(difluoromethyl)phenyl)cyclohexyl)-oxy)methyl)-3-((methylsulfonyl)amino)piperidine-1-carboxylate]
5	75	–	CS(=O)(=O)N[C@H]1CCCN[C@H]1COC1CCC(F)(c2cc(F)cc(F)c2)CC1 (relative stereo) [Example 325, N-(cis-2-(((4-(3,5-difluorophenyl)-4-fluorocyclohexyl)oxy)methyl)-piperidin-3-yl)methanesulfonamide]
